Results taken from PMC6800369 (Proceedings of the National Academy of Sciences of the …, 2019).

Tests used:
PRK = molecular target: T1, PRK (Thermosynechococcus vestitus, UniProt Q8DHN2); assay: ADP production, coupled assay with ADP-hexokinase; type: biochemical; details: ternary complex reduced with DTT
T1 sequence (Q8DHN2 1-334): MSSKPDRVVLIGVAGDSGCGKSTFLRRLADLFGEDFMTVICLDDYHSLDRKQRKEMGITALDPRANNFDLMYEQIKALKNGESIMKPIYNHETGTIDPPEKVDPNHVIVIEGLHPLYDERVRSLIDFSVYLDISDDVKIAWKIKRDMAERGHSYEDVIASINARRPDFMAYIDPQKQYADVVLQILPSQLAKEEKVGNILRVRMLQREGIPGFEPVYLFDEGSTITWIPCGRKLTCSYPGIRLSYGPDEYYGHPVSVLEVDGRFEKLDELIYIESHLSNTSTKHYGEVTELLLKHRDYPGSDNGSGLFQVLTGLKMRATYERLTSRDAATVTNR

GAPDH = molecular target: T2, GAPDH (Thermosynechococcus vestitus, UniProt Q8DIW5); assay: X-ray crystal structure; type: binding
T2 sequence (Q8DIW5 1-337): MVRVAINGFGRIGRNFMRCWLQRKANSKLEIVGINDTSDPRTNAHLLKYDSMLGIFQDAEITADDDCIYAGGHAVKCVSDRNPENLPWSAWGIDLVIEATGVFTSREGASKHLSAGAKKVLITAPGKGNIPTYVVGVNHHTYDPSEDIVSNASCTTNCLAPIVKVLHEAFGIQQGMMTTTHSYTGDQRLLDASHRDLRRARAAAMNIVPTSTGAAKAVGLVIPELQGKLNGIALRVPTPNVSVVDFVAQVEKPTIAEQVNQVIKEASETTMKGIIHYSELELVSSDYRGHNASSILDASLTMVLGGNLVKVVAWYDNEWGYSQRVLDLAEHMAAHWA

GAPDH-CP12 = molecular target: T3, GAPDH-CP12 (Thermosynechococcus vestitus, UniProt Q8DIW5); assay: X-ray crystal structure; type: binding; details: proximal (CP12-occupied) and distal sites
T3 sequence (Q8DIW5 1-337): T2 sequence (Q8DIW5 1-337)
T3 sequence (Q8DHX3 1-75 partner): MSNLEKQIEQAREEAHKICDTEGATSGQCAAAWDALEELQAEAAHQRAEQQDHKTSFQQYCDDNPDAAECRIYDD

With `Nc1ncnc2c1ncn2[C@@H]1O[C@H](COP(=O)(O)OP(=O)(O)OP(=O)(O)O)[C@@H](O)[C@H]1O` [ATP] the “ADP production, coupled assay with ADP-hexokinase” value (PRK; co-substrate ribulose 5-phosphate) was “measuring ADP production from ATP and ribulose 5-phosphate (Ru5P)”.

For `NC(=O)c1ccc[n+]([C@@H]2O[C@H](COP(=O)(O)OP(=O)(O)OC[C@H]3O[C@@H](n4cnc5c(N)ncnc54)[C@H](O)[C@@H]3O)[C@@H](O)[C@H]2O)c1` [NAD^+], the X-ray crystal structure (GAPDH; NAD+ bound from E. coli expression) was “GAPDH-NAD^+, GAPDH-NADP^+” and the X-ray crystal structure (GAPDH-CP12) was “The CP12-bound (proximal) site makes extensive contacts with both NAD^+ and GAPDH”.

With `O=C(CO)[C@H](O)[C@H](O)COP(=O)(O)O` [ribulose 5-phosphate] the “ADP production, coupled assay with ADP-hexokinase” value (PRK; co-substrate ATP) was “measuring ADP production from ATP and ribulose 5-phosphate (Ru5P)”.

In the case of `NC(=O)c1ccc[n+]([C@@H]2O[C@H](COP(=O)(O)OP(=O)(O)OC[C@H]3O[C@@H](n4cnc5c(N)ncnc54)[C@H](OP(=O)(O)O)[C@@H]3O)[C@@H](O)[C@H]2O)c1` [NADP^+], the X-ray crystal structure (GAPDH; NAD+ exchanged for NADP+ by turnover) is reported as “this could be exchanged for NADP^+ by turning over the enzyme”.
